Assay results taken from patent US20240050428A1 (Cullgen (Shanghai), Inc., priority 2020, published 2024).
Where two headings read alike, the source gives them in different places.

Key:
MOLM-13 cells = test: Cell viability assay (CellTiter-Glo) in MOLM-13 cells, alone or with gilteritinib; assay type: cell-based; conditions: Homo sapiens, MOLM-13, 72 h, MOLM-13 cells, three days, CellTiter-Glo
MV4;11 cells = test: Cell viability assay (CellTiter-Glo) in MV4;11 cells, alone or with gilteritinib; assay type: cell-based; conditions: Homo sapiens, MV4-11, 72 h, MV4;11 cells, three days, CellTiter-Glo, read-out: MV4
[1] = compound alone (without gilteritinib), read-out: MOLM-13 IC50
[2] = compound with gilteritinib 20 nM, read-out: MOLM-13 IC50 gilteritinib
[3] = compound alone (without gilteritinib), 11 IC50
[4] = compound with gilteritinib 10 nM, 11 IC50 gilteritinib

| SMILES | IC50 (MOLM-13 cells; [1]) | IC50 (MOLM-13 cells; [2]) | IC50 (MV4;11 cells; [3]) | IC50 (MV4;11 cells; [4]) |
| --- | --- | --- | --- | --- |
| O=C1CCC(N2C(=O)c3ccc(NC[C@H]4C[C@H](n5nc(C6CC6)c6ncccc65)C4)cc3C2=O)C(=O)N1 (stereo partly drawn) [GS-475, 5-(((trans-3-(3-cyclopropyl-1H-pyrazolo[4,3-b]pyridin-1-yl)cyclobutyl)methyl)amino)-2-(2,6-dioxopiperidin-3-yl)isoindoline-1,3-dione] | > 1000 nM | > 1000 nM | > 1000 nM | > 1000 nM |
| O=C1CCC(N2Cc3cc(CNC(=O)c4cccc(N5CCC(n6cc(-c7cnc8ccccc8n7)cn6)CC5)c4)ccc3C2=O)C(=O)N1 (centres unmarked) [GS-476, N-((2-(2,6-dioxopiperidin-3-yl)-1-oxoisoindolin-5-yl)methyl)-3-(4-(4-(quinoxalin-2-yl)-1H-pyrazol-1-yl)piperidin-1-yl)benzamide] | < 10 nM | < 10 nM | < 10 nM | < 10 nM |
| O=C1CCC(N2C(=O)c3ccc(NCCCCCC(=O)N4CCC(n5cc(-c6cnc7cccc(C8=CCNCC8)c7n6)cn5)CC4)cc3C2=O)C(=O)N1 (centres unmarked) [GS-480, 2-(2,6-dioxopiperidin-3-yl)-5-((6-oxo-6-(4-(4-(8-(1,2,3,6-tetrahydropyridin-4-yl)quinoxalin-2-yl)-1H-pyrazol-1-yl)piperidin-1-yl)hexyl)amino)isoindoline-1,3-dione] | 100 to 1000 nM | < 10 nM | 10 to 100 nM | < 10 nM |
| O=C1CCC(N2C(=O)c3ccc(NCCCCCC(=O)N4CCC(c5cnc6ccccc6c5)CC4)cc3C2=O)C(=O)N1 (centres unmarked) [GS-481, 2-(2,6-dioxopiperidin-3-yl)-5-((6-oxo-6-(4-(quinolin-3-yl)piperidin-1-yl)hexyl)amino)isoindoline-1,3-dione] | 10 to 100 nM | < 10 nM | < 10 nM | < 10 nM |
| O=C(Cc1cccc(N2CCN(c3ccccn3)CC2)c1)NCc1ccc2c(c1)CN(C1CCC(=O)NC1=O)C2=O (centres unmarked) [GS-483, N-((2-(2,6-dioxopiperidin-3-yl)-1-oxoisoindolin-5-yl)methyl)-2-(3-(4-(pyridin-2-yl)piperazin-1-yl)phenyl)acetamide] | < 10 nM | < 10 nM | < 10 nM | < 10 nM |
| O=C1CCC(N2Cc3cc(OCCCCC(=O)N4CCC(n5cc(-c6cnc7ccccc7n6)cn5)CC4)ccc3C2=O)C(=O)N1 (centres unmarked) [GS-484, 3-(1-oxo-5-((5-oxo-5-(4-(4-(quinoxalin-2-yl)-1H-pyrazol-1-yl)piperidin-1-yl)pentyl)oxy)isoindolin-2-yl)piperidine-2,6-dione] | 100 to 1000 nM | 100 to 1000 nM | > 1000 nM | 100 to 1000 nM |
| O=C1CCC(N2Cc3cc(OCCC(=O)N4CCC(n5cc(-c6cnc7ccccc7n6)cn5)CC4)ccc3C2=O)C(=O)N1 (centres unmarked) [GS-485, 3-(1-oxo-5-(3-oxo-3-(4-(4-(quinoxalin-2-yl)-1H-pyrazol-1-yl)piperidin-1-yl)propoxy)isoindolin-2-yl)piperidine-2,6-dione] | > 1000 nM | > 1000 nM | > 1000 nM | > 1000 nM |
| O=C1CCC(N2Cc3cc(OCCCN4CCC(n5cc(-c6cnc7ccccc7n6)cn5)CC4)ccc3C2=O)C(=O)N1 (centres unmarked) [GS-492, 3-(1-oxo-5-(3-(4-(4-(quinoxalin-2-yl)-1H-pyrazol-1-yl)piperidin-1-yl)propoxy)isoindolin-2-yl)piperidine-2,6-dione] | > 1000 nM | > 1000 nM | > 1000 nM | > 1000 nM |
| O=C1CCC(N2Cc3cc(OCCCCCC(=O)N4CCC(n5cc(-c6cnc7ccccc7n6)cn5)CC4)ccc3C2=O)C(=O)N1 (centres unmarked) [GS-493, 3-(1-oxo-5-((6-oxo-6-(4-(4-(quinoxalin-2-yl)-1H-pyrazol-1-yl)piperidin-1-yl)hexyl)oxy)isoindolin-2-yl)piperidine-2,6-dione] | > 1000 nM | < 10 nM | 10 to 100 nM | < 10 nM |
| COc1cccnc1-c1cnn([C@H]2C[C@H](CCCNc3ccc4c(c3)C(=O)N(C3CCC(=O)NC3=O)C4=O)C2)c1 (stereo partly drawn) [GS-494, 2-(2,6-Dioxopiperidin-3-yl)-5-((3-(trans-3-(4-(3-methoxypyridin-2-yl)-1H-pyrazol-1-yl)cyclobutyl)propyl)amino)isoindoline-1,3-dione] | 10 to 100 nM | < 10 nM | 10 to 100 nM | < 10 nM |
| O=C1CCC(N2Cc3cc(NC(=O)Cc4cccc(N5CCC(n6cc(-c7cnc8ccccc8n7)cn6)CC5)c4)ccc3C2=O)C(=O)N1 (centres unmarked) [GS-495, N-(2-(2,6-dioxopiperidin-3-yl)-1-oxoisoindolin-5-yl)-2-(3-(4-(4-(quinoxalin-2-yl)-1H-pyrazol-1-yl)piperidin-1-yl)phenyl)acetamide] | < 10 nM | < 10 nM | < 10 nM | < 10 nM |
